The source of these data is patent publication US12286401B2, “Small molecules that sensitize HIV-1 infected cells to antibody dependent cellular cytotoxicity” (THE TRUSTEES OF THE UNIVERSITY OF PENNSYLVANIA, priority 2018, dated 2025).

Data set [1] concerns CH58TF infected primary CD4+ T-cells. Nature of the data set: HIV+ patient sera/plasma recognition of CH58TF infected primary CD4+ T-cells (flow cytometry cell-surface staining). It counts as cell-based, HIV-1. The conditions noted are these: Human immunodeficiency virus 1, T-cell, read-out: Fold Over DMSO (patient sera, n = 3). The method in brief: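 Primary CD4+ T cells from PBMC infected with HIV-1 CH58TF for 48 h, then surface-stained with 1:1000 HIV+ plasma or 5 μg/ml 17b plus 50 μM MCG analogs or DMSO; Alexa Fluor 647 anti-human IgG detection by flow cytometry, infected cells gated p24+. Values are fold change over DMSO.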
A general note: In flow cytometry, cells or beads pass a laser one at a time.

For data set [2] the test system is unchanged. Nature of the data set: Recognition of HIV-1 infected cells by 17b (flow cytometry cell-surface staining). The conditions noted are these: Human immunodeficiency virus 1, T-cell, read-out: Fold Over DMSO (17b, n = 1). The data set is classed as cell-based. In outline:
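Primary CD4+ T cells infected 48 h with HIV-1 CH58TF, stained with 5 μg/ml 17b plus MCG analogs (50 μM), (+)-BNM-III-170 or DMSO vehicle. Detection by Alexa Fluor 647 anti-human IgG secondary and flow cytometry. Infected cells gated as p24+ living cells.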

Data set [3] has as its system primary CD4+ T cells infected with CH58 TF. Nature of the data set: FACS-based ADCC assay with patient sera/plasma. It counts as cell-based, HIV-1. Particulars: Human immunodeficiency virus 1, CD4+ T, read-out: Fold over DMSO (% ADCC with ps, n = 3). The procedure: Measurement of antibody or serum-mediated ADCC is performed with a FACS-based assay as described in Prevost, “Influence of the Envelope gp120 Phe 43 Cavity on HIV-1 Sensitivity to Antibody-Dependent Cell-Mediated Cytotoxicity Responses,” 2017, J. Virol 91; Richard, “CD4 mimetics sensitize HIV-1-infected cells to ADCC,” 2015, Proc. Natl. Acad. Sci. USA, 112:E2687-2694; Richard, “Small CD4 Mimetics Prevent HIV-1 Uninfected Bystander CD4+ T Cell Killing Mediated by Antibody-dependent Cell-mediated Cytotoxicity,” 2016, EBioMedicine 3:122-134; Veillette, “The HIV-1 gp120 CD4-Bound Conformation Is Preferentially Targeted by Antibody-Dependent Cellular Cytotoxicity-Mediating Antibodies in Sera from HIV-1-Infected Individuals,” 2015, J. Virol., 89:545-551; Veillette, “Interaction with cellular CD4 exposes HIV-1 envelope epitopes targeted by antibody-dependent cell-mediated cytotoxicity,” 2014, J. Virol., 88:2633-2644; Richard, “Uninfected Bystander Cells Impact the Measurement of HIV-Specific Antibody-Dependent Cellular Cytotoxicity Responses,” 2018, MBio. 9(2): e00358-18; Richard, “BST-2 Expression Modulates Small CD4-Mimetic Sensitization of HIV-1-Infected Cells to Antibody-Dependent Cellular Cytotoxicity,” 2017, J. Virol. 91(11):e00219-17. This assay specifically measures ADCC activity against productively infected cells and is not affected by the confounding effect of uninfected bystander cells. See, Richard, “Uninfected Bystander Cells Impact the Measurement of HIV-Specific Antibody-Dependent Cellular Cytotoxicity Responses,” 2018, MBio., 9(2): e00358-18.
Briefly, primary CD4+ T cells isolated from healthy HIV-1-negative individuals or CEM-NKr cells are infected with HIV viruses. Forty-eight hours post-infection, cells are incubated with autologous PBMC (effector:target cell ratio of 10:1) in the presence of 1:1000 HIV+ sera dilution or anti-Env Abs (5 μg/mL) alone or in combination with increasing concentration of MCG analogs. Infected cells are identified by intracellular staining for HIV-1 p24 or GFP expression (for GFP expressing infectious molecular clones) and the percentage of cytotoxicity is calculated the following formula as described.
For cells infected with HIV-1 primary isolates, infected cells are identified by intracellular staining for HIV-1 p24. In that context, the percentage of cytotoxicity is calculated with the following formula by gating infected lived target cells: […]
The ADCC susceptibility of primary CD4+ T cells infected with CH58 TF mediated by HIV+ plasma+/−MCG analogs also was evaluated using a FACS-based assay as previously reported. See, Ding, 2016, J Virol., 90:2127-2134; and Richard, 2018, MBio 9.
Briefly, Primary CD4 T cells isolated from PBMC were infected with HIV-1CH58TF for 48 hours. For cell surface staining, 5 μg/ml 17b (FIG. 15A) or 1:1000 diluted HIV+ plasma (n=15) (FIG. 15B) were used in the presence of the different MCG analogs (50 μM), (+)-BNM-III-170 or with an equivalent volume of vehicle (DMSO). An Alexa Fluor 647-conjugated anti-human IgG secondary Ab was then used for fluorescent labeling. For ADCC (FIG. 15C), infected cells were used as target cells in a FACS-based ADCC assay that measures the killing of infected (p24+ cells). See, Madani, 2016, J. Virol., 90:5031-5046. The assay determines susceptibility to ADCC mediated by a 1/1,000 dilution of plasma from 15 HIV-1-infected individuals in the presence of the different MCG analogs (50 μM), (+)-BNM-III-170 (50 μM) or with an equivalent volume of vehicle (DMSO). Correlation between cell-surface staining with HIV+ plasma and ADCC was calculated using the Spearman rank correlation (FIG. 15D).

The next data set is described as follows: Solubility in PBS. The data set is classed as physicochemical. The conditions noted are these: Yes/NO.
Data set [4] has as its system HIV-1JR-FL EnvΔCT expressed at the surface of HOS cells. Nature of the data set: Cell-based ELISA (CBE), 17b readout. Particulars: MCG analogs 50 μM; BNM-III-170 5 μM; 2G12 and DMSO normalized. The method in brief: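 HOS cells transiently expressing cytoplasmic-tail-truncated HIV-1JR-FL Env were treated 30 min at room temperature with compounds (50 μM), sCD4 ([…]) or DMSO, then 1 h with 17b antibody. Bound 17b was detected by HRP-conjugated anti-Fc chemiluminescence; values are fold over BNM-III-170 (5 μM), normalized to 2G12 and DMSO.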
(An ELISA detects its analyte on a solid surface through an enzyme-linked reagent.)

As for `COc1ccccc1NC(=O)[C@H]1CCCN(S(C)(=O)=O)C1` [(S)-MCG-III-027-C05], the fold induction at 50 µM worked out at 1.76 in data set [1], 1.5 in data set [2] and 0.46 in data set [3]. The “Solubility (in PBS)” value in “Solubility in PBS” is “Yes”.

Take `CS(=O)(=O)N1CCNC(C(=O)Nc2ccc(Cl)c(F)c2)C1` (centres unmarked) [MCG-III-216-A02]: the fold induction at 50 µM in data set [1] was 1.03; in data set [2], 1.3. Also, the “Solubility (in PBS)” value in the data set “Solubility in PBS” was “Yes”. Moreover, the “Fold over BNM-III-170 - 17b binding (±0.05)” value in data set [4] was 0.10 fold.
